target: T1, substance P receptor (Homo sapiens, UniProt P25103); assay: Radioligand receptor binding inhibitory activity using receptor from human lymphoblast cells (IM-9), 125I-BHSP; details: human IM-9 cell receptor, 25° C., 30 minutes, pH 7.4, n=1
T1 construct: The receptor was prepared from human lymphoblast cells (IM-9); endogenous in cells; host or cells: IM-9 human lymphoblast cells (crude membrane preparation)
Method: Radioligand receptor binding inhibitory activity
Binding inhibitory activity using receptor from human lymphoblast cells (IM-9)
The method of A. Margaret "Molecular Pharmacology 42, p.458 (1992)" was modified and used. The receptor was prepared from human lymphoblast cells (IM-9). IM-9 cells (2×10^5 cells/ml) were inoculated and incubated for 3 days (one liter), which was then subjected to centrifuge for 5 minutes at 500×g to obtain cell pellets. The pellets were washed once with phosphate buffer (Flow Laboratories, CAT. No. 28-103-05), which were then crushed using Polytron.homogenizer "Kinematika, Germany" in 30 ml of 50 mM Tris-HCl buffer (pH 7.4) containing 120 mM sodium chloride, 5 mM potassium chloride, 2 μg/ml chymostatin, 40 μg/ml bacitracin, 5 μg/ml phosphoramidon, 0.5 mM phenylmethyl sulfonyl fluoride, 1 mM ethylenediamine tetra-acetic acid, which was subjected to centrifuge at 40,000×g for 20 minutes. The residue was washed twice with 30 ml of the above-mentioned buffer, which was then preserved frozen (-80° C.) as a specimen of the receptor.
The specimen was suspended in a reaction buffer (50 mM Tri-HCl buffer (pH 7.4), 0.02% bovine serum albumin, 1 mM phenylmethylsulfonyl fluoride, 2 μg/chymostatin, 40 μg/ml bacitracin, 3 mM manganese chloride) and 100 ul portion was the suspension was used in the reaction. After addition of the sample and ^125 I-BHSP (0.46 KBq), the reaction was allowed to proceed in 0.2 ml of reaction buffer at 25° C. for 30 minutes. The amount of nonspecific binding was determined by adding substance P at a final concentration of 2×10^-6 M. After the reaction, using a cell harvester (290 PHD, Cambridge Technology, Inc, U.S.A.), rapid filtration was carried out through a glass filter (GF/B, Whatman, U.S.A.) to stop the reaction. After washing three times with 250 ul of 50 mM of Tris-HCl buffer (pH 7.4) containing 0.02% bovine serum albumin, the radioactivity remaining on the filter was determined with a gamma counter. Before use, the filter was immersed in 0.1% polyethyleneimine for 24 hours and air-dried. […] (Radioligand means substance P labelled with ^125 I.) The number of this experiment is one.

T1 sequence (P25103 whole entry): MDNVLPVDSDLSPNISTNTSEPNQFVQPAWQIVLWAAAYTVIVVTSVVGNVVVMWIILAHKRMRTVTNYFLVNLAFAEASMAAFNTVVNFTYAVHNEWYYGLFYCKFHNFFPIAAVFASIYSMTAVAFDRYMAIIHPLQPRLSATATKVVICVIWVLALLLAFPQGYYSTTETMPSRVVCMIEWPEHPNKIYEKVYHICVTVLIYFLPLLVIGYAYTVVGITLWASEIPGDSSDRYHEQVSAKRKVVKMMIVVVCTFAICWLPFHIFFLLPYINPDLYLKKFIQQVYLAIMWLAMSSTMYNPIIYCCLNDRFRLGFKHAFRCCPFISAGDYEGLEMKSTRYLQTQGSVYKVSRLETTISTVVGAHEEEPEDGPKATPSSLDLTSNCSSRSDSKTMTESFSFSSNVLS

Row | Structure (SMILES) | IC50
1 | COc1ccccc1CNC(=O)c1c(-c2ccc(F)cc2)c2cccnc2c(=O)n1C [Example 3, 5-(4-Fluorophenyl)-7,8-dihydro-N-(2-methoxybenzyl)-7-methyl-8-oxo-6-pyrido[3,4-b]pyridinecarboxamide] | 14 nM
2 | COc1ccccc1CN(C)C(=O)c1c(-c2ccc(F)cc2)c2cccnc2c(=O)n1C [Example 4, 5-(4-Fluorophenyl)-7,8-dihydro-N-(2-methoxybenzyl)-N,7-dimethyl-8-oxo-6-pyrido[3,4-b]pyridinecarboxamide] | 2.5 nM
3 | CN(Cc1cc(C(F)(F)F)cc(C(F)(F)F)c1)C(=O)c1c(-c2ccc(F)cc2)c2cc(Cl)cnc2c(=O)n1C [Example 6, N-[3,5-Bis(trifluoromethyl)benzyl]-3-chloro-5-(4-fluorophenyl)-7,8-dihydro-N, 7-dimethyl-8-oxo-6-pyrido[3,4-b]pyridinecarboxamide] | 1.1 nM
4 | CN(Cc1cc(C(F)(F)F)cc(C(F)(F)F)c1)C(=O)c1c(-c2ccc(F)cc2)c2cnccc2c(=O)n1C [Example 9, N-[3,5-Bis(trifluoromethyl)benzyl]-4-(4-fluorophenyl)-1,2-dihydro-N, 2-dimethyl-1-oxo-3-pyrido[4,3-c]pyridine carboxamide] | 1.2 nM
5 | Cc1ccccc1-c1c(C(=O)N(C)Cc2cc(C(F)(F)F)cc(C(F)(F)F)c2)n(C)c(=O)c2cccnc12 [Example 10, N-[3,5-Bis(trifluoromethyl)benzyl]-5,6-dihydro-N, 6-dimethyl-8-(2-methylphenyl)-5-oxo-7-pyrido[4,3-b]pyridinecarboxamide] | 33 nM
6 | CN(Cc1cc(C(F)(F)F)cc(C(F)(F)F)c1)C(=O)c1cnc2ccccc2c1-c1ccccn1 [Example 12, N-[3,5-Bis(trifluoromethyl)benzyl]-N-methyl-4-(2-pyridyl)-3-quinolinecarboxamide] | 2.8 nM
7 | CN(Cc1cc(C(F)(F)F)cc(C(F)(F)F)c1)C(=O)c1c(-c2ccc(F)cc2)c2cscc2c(=O)n1C [Example 18, N-[3,5-Bis(trifluoromethyl)benzyl]-7-(4-fluorophenyl)-4,5-dihydro-N, 5-dimethyl-4-oxo-6-thieno[3,4-c]pyridine carboxamide] | 0.36 nM
8 | CN(Cc1cc(C(F)(F)F)cc(C(F)(F)F)c1)C(=O)c1c(-c2ccc(F)cc2)c2ncccc2c(=O)n1C [Example 19, N-[3,5-Bis(trifluoromethyl)benzyl]-8-(4-fluorophenyl)-5,6-dihydro-N, 6-dimethyl-5-oxo-7-pyrido[4,3-b]pyridine carboxamide] | 0.94 nM
9 | CN(Cc1cc(C(F)(F)F)cc(C(F)(F)F)c1)C(=O)c1c(-c2cccs2)c2ccccc2c(=O)n1C [Example 21, N[3,5-Bis(trifluoromethyl)benzyl]-1,2-dihydro-N, 2-dimethyl-1-oxo-4-(2-thienyl)-3-isoquinolinecarboxamide] | 2.5 nM
10 | CN(Cc1cc(C(F)(F)F)cc(C(F)(F)F)c1)C(=O)c1cnc2sccc2c1-c1ccc(F)cc1 [Example 24, N[3,5-Bis(trifluoromethyl)benzyl]-4-(4-fluorophenyl)-N-methyl-5-thieno[2,3-b]pyridinecarboxamide] | 0.2 nM
11 | CN(Cc1cc(C(F)(F)F)cc(C(F)(F)F)c1)C(=O)c1c(-c2ccc(F)cc2)c2c(c(=O)n1C)CCCN2C [Example 28, N-[3,5-Bis(trifluoromethyl)benzyl]-8-(4-fluorophenyl)-1,2,3,4,5,6-hexahydro-N, 1,6-trimethyl-5-oxo-7-pyrido [4,3-b]pyridinecarboxamide] | 5 nM
12 | CN(Cc1cc(C(F)(F)F)cc(C(F)(F)F)c1)C(=O)c1c(-c2ccc(F)cc2)c2ccc[n+](C)c2c(=O)n1C [Example 29, 6-[N-[3,5-Bis(trifluoromethyl)benzyl]-N-methylaminocarbonyl]-5-(4-fluorophenyl)-7,8-dihydro-1,7-dimethyl-8-oxopyrido[3,4-b]pyridinium iodide] | 0.6 nM
13 | CN(Cc1cc(C(F)(F)F)cc(C(F)(F)F)c1)C(=O)c1c(-c2ccc(F)cc2)c2c(c(=O)n1C)N(C)CCC2 [Example 30, N-[3,5-Bis(trifluoromethyl)benzyl]-5-(4-fluorophenyl)-1,2,3,4,7,8-hexahydro-N, 1,7-trimethyl-8-oxo-6-pyrido [3,4-b]pyridinecarboxamide] | 0.1 nM
14 | CN(Cc1cc(C(F)(F)F)cc(C(F)(F)F)c1)C(=O)c1c(-c2ccc(F)cc2)c2cc[n+](C)cc2c(=O)n1C [Example 31, 3-[N-[3,5-Bis(trifluoromethyl)benzyl]-N-methylaminocarbonyl]-4-(4-fluorophenyl)-1,2-dihydro-2,7-dimethyl-1-oxopyrido[3,4-c]pyridinium iodide] | 0.33 nM
15 | CN1CCc2c(-c3ccc(F)cc3)c(C(=O)N(C)Cc3cc(C(F)(F)F)cc(C(F)(F)F)c3)n(C)c(=O)c2C1 [Example 32, N-[3,5-Bis(trifluoromethyl)benzyl]-4-(4-fluorophenyl)-1,2,5,6,7,8-hexahydro-N,2,7-trimethyl-1-oxo-3-pyrido[3,4-c]pyridinecarboxamide] | 0.048 nM
16 | CN(Cc1cc(C(F)(F)F)cc(C(F)(F)F)c1)C(=O)c1c(-c2ccc(F)cc2)c2c[n+](C)ccc2c(=O)n1C [Example 33, 3-[N-[3,5-Bis(trifluoromethyl)benzyl]-N-methylaminocarbonyl]-4-(4-fluorophenyl)-1,2-dihydro-2,6-dimethyl-1-oxopyrido[4,3-c]pyridinium iodide] | 16 nM
17 | CN1CCc2c(c(-c3ccc(F)cc3)c(C(=O)N(C)Cc3cc(C(F)(F)F)cc(C(F)(F)F)c3)n(C)c2=O)C1 [Example 34, N-[3,5-Bis(trifluoromethyl)benzyl]-4-(4-fluorophenyl)-1,2,5,6,7,8-hexahydro-N,2,6-trimethyl-1-oxo-3-pyrido [4,3-c]pyridinecarboxamide] | 2.1 nM
18 | CN(Cc1cc(C(F)(F)F)cc(C(F)(F)F)c1)C(=O)c1c(-c2ccc(F)cc2)c2ccc(=O)n(C)c2c(=O)n1C [Example 35, N-[3,5-Bis(trifluoromethyl)benzyl]-5-(4-fluorophenyl)-1,2,7,8-tetrahydro-N,1,7-trimethyl-2,8-dioxo-6-pyrido [3,4-b]pyridinecarboxamide] | 0.35 nM
19 | CN(Cc1cc(C(F)(F)F)cc(C(F)(F)F)c1)C(=O)c1c(-c2ccccc2)c2ccncc2c(=O)n1C [Example 37, N-[3,5-Bis(trifluoromethyl)benzyl]-1,2-dihydro-N, 2-dimethyl-1-oxo-4-phenyl-3-pyrido[3,4-c]pyridinecarboxamide] | 0.62 nM
20 | CN(Cc1cc(C(F)(F)F)cc(C(F)(F)F)c1)C(=O)c1c(-c2ccc(F)cc2)c2ncsc2c(=O)n1C [Example 40, N-[3,5-Bis(trifluoromethyl)benzyl]-7-(4-fluorophenyl)-4,5-dihydro-N, 5-dimethyl-4-oxo-6-thiazolo[5,4-c]pyridinecarboxamide] | 1.8 nM
21 | CN(Cc1cc(C(F)(F)F)cc(C(F)(F)F)c1)C(=O)c1c(-c2ccccc2)c2scnc2c(=O)n1C [Example 43, N-[3,5-Bis(trifluoromethyl)benzyl]-4,5-dihydro-N, 5-dimethyl-4-oxo-7-phenyl-6-thiazolo[4,5-c]pyridinecarboxamide] | 1 nM
22 | CN(Cc1cc(C(F)(F)F)cc(C(F)(F)F)c1)C(=O)c1c(-c2ccccc2)c2ccsc2c(=O)n1C [Example 44, N-[3,5-bis(trifluoromethyl)benzyl]-6,7-dihydro-N, 6-dimethyl-7-oxo-4-phenyl-5-thieno[2,3-c]pyridinecarboxamide] | 0.24 nM

Reference: patent publication US5585385A, “Heterocyclic compounds, their production and use as tachykinin reactor antagonists” (Takeda Chemical Industries, Ltd., priority 1993, dated 1996)
